{"source": "patent US20070117867A1", "about": "“Kit comprising three independent compositions and methods for building muscle, increasing strength, increasing muscle size, increasing muscle performance and reducing muscle fatigue” (priority 2005, published 2007)", "origin": "cited, not measured here", "key": {"[1]": {"test_system": "protein synthesis", "settings": "for the purposes of muscle growth and development"}, "[2]": {"test_system": "muscle", "settings": "Creatine supplementation"}, "[3]": {"test_system": "type II diabetics"}}}
{"molecule": "CC(C)C[C@H](N)C(=O)O", "note": "[Leucine]", "values": [{"measurement": "protein synthesis", "setting": "[1]", "result": "directly activate"}]}
{"molecule": "CN(CC(=O)O)C(=N)N", "note": "[Creatine]", "values": [{"measurement": "concentration of Creatine in the muscle", "setting": "[2]", "result": "increase"}, {"measurement": "resynthesis of Phosphocreatine", "setting": "[2]; within 2 minutes of recovery following exercise", "result": "increase"}]}
{"molecule": "O=C(O)CCCCC1CCSS1", "note": "(stereo not drawn) [Alpha Lipoic Acid]", "values": [{"measurement": "body's utilization of blood sugar", "setting": "[3]", "result": "significantly increase"}]}
